The values below come from ChEMBL document CHEMBL1135322, “Glutathione-like tripeptides as inhibitors of glutathionylspermidine synthetase. Part 1: Substitution of the glycine carboxylic acid group” (Bioorg Med Chem Lett, 2002).

For series [1], the target named is T1, Glutathionylspermidine synthase (Crithidia fasciculata, UniProt P90518).
T1 sequence (P90518 whole entry): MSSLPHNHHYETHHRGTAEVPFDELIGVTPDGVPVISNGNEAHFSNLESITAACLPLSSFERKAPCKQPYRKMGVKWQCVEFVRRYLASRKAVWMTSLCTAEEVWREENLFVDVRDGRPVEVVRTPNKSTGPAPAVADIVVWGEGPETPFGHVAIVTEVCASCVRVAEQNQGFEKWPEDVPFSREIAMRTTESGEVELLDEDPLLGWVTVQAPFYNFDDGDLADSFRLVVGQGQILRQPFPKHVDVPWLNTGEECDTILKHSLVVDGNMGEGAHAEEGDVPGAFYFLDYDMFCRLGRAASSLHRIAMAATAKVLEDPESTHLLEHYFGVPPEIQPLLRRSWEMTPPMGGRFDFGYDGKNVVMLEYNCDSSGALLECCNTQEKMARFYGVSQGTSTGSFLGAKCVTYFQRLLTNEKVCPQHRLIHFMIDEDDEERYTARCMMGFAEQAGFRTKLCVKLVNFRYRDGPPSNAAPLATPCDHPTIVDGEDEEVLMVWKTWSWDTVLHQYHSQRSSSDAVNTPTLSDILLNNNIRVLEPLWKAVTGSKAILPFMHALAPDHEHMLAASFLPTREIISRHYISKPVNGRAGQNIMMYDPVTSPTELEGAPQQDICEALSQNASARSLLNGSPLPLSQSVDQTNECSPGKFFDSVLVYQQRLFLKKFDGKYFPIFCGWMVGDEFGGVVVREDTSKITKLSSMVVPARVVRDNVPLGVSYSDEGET
The series is described as follows: Concentration required for the inhibition of enzyme Glutathionylspermidine Synthetase wild-type enzyme.

The target of series [2] is T2, Glutathionylspermidine synthase (Crithidia fasciculata) (UniProt P90518).
T2 sequence (whole entry): T1 sequence (P90518 whole entry)
The series can be described thus: Compound was tested for percent inhibition towards the enzyme Glutathionylspermidine Synthetase wild-type enzyme and compared with 0.5 mM GSH.

For series [3], the target named is T1, Glutathionylspermidine synthase. The series is described as follows: Inhibition constant was evaluated against enzyme Glutathionylspermidine Synthetase wild-type enzyme.
For series [4], the target named is T2, Glutathionylspermidine synthase (Crithidia fasciculata). The series is described as follows: Compound was tested for substrate activity towards the enzyme Glutathionylspermidine Synthetase wild-type enzyme and compared with 0.5 mM GSH.
Series [5] has the same target. The series is described as follows: (§1) Inhibitory activity against amidase free Glutathionylspermidine Synthetase mutant (C79A). To be noted: concentration not given here.
Series [6] has the same target. The series is described as follows: (§2) Substrate activity against amidase free Glutathionylspermidine Synthetase mutant (C79A).
For series [7], the target named is T3, Glutathionylspermidine synthase (Crithidia fasciculata, UniProt P90518, C79A). The series is described as §1.
The target in series [8] is T3, Glutathionylspermidine synthase. The series can be described thus: Inhibitory constant against amidase free Glutathionylspermidine Synthetase mutant (C79A).
For series [9] the target is unchanged. The series can be described thus: Inhibitory constant against amidase free Glutathionylspermidine Synthetase mutant (C79A); NA denotes not applicable.
Series [10] in a line: Half-life was determined. In kind it is ADME. To be noted: human.
Series [11] addresses T1, Glutathionylspermidine synthase. The series can be described thus: Concentration required for the inhibition of enzyme Glutathionylspermidine Synthetase wild-type enzyme; NA denotes not applicable.
Series [12] deals with T3, Glutathionylspermidine synthase. The series can be described thus: Inhibitory activity against amidase free Glutathionylspermidine Synthetase mutant (C79A); NA denotes not applicable.
The target of series [13] is T1, Glutathionylspermidine synthase. The series can be described thus: Inhibition constant was evaluated against enzyme Glutathionylspermidine Synthetase wild-type enzyme; NA denotes not applicable.
Series [14] shares this target. The series is described as follows: Inhibition constant was evaluated against enzyme Glutathionylspermidine Synthetase; NA denotes not applicable.
Substrate in series [15]: CC(C)C[C@H](NC(=O)CC[C@H](N)C(=O)O)C(=O)NCc1nn[nH]n1
The series can be described thus: Michaelis-Menten constant at the concentration of < 0.4 mM. To be noted: Crithidia fasciculata.

Substrate in series [16]: CC(C)C[C@H](NC(=O)CC[C@H](N)C(=O)O)C(=O)NCC(N)=O
The description is as §2. To be noted: Crithidia fasciculata.

Substrate in series [17]: CC(C)C[C@H](NC(=O)CC[C@H](N)C(=O)O)C(=O)NCC(=O)O
The series is described as follows: Compound was tested for substrate activity (Apparent Km) towards the enzyme Glutathionylspermidine Synthetase wild-type enzyme and compared with 0.5 mM GSH. To be noted: Crithidia fasciculata.

“And” between values parts separate entries of the source, which are not always exact repeats. Equal values may be shown once. Where a SMILES comes first, the peptide text is derived from it.

T3 sequence (P90518 whole entry C79A): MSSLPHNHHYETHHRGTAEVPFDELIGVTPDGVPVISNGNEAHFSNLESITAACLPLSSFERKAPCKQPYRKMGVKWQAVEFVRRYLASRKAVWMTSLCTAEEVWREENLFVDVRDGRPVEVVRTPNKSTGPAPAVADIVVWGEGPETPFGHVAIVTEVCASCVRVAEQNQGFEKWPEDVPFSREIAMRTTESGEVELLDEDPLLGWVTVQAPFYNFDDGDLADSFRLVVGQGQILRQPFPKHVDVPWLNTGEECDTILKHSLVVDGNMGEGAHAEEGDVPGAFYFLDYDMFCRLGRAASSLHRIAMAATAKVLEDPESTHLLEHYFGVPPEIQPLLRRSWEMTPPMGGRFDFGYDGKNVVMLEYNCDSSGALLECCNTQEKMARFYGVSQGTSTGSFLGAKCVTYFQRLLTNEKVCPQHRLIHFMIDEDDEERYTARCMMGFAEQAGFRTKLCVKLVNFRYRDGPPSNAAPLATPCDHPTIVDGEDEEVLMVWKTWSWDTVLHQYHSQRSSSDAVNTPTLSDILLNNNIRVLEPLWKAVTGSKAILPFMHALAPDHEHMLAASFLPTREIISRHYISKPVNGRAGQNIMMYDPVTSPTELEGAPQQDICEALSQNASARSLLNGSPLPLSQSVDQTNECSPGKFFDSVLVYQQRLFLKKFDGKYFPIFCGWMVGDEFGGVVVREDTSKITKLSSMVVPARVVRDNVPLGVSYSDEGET

`CC(C)C[C@H](NC(=O)CC[C@H](N)C(=O)O)C(=O)NCP(=O)(O)O` registered an IC50 in [1] of 60 µM. The inhibition in [2] is 86%. Also, the inhibition constant Ki in series [3] is 60 µM. Further, the Activity in series [4] turned out to be 0%.
`CC(C)C[C@H](NC(=O)CC[C@H](N)C(=O)O)C(=O)NCc1nnn[nH]1` came in with an IC50 in series [1] of 138 µM.
For `Cc1ccc(S(=O)(=O)NC(=O)CNC(=O)[C@H](CC(C)C)NC(=O)CC[C@H](N)C(=O)O)cc1`, 2 µM corresponded to half-maximal inhibition in series [1] (IC50). Besides, the inhibition in series [2] stood at 2%. In series [4], this molecule yielded an Activity of 2%.
`CC(C)C[C@H](NC(=O)CC[C@H](N)C(=O)O)C(=O)NCB(O)O` gave an IC50 in series [1] of 17.2 µM. In [2], this molecule displayed an inhibition of 95%. The inhibition constant (Ki) in [3] is 81 µM and 18 µM. This molecule yielded an Activity in [4] of 1%.
For the molecule `CC(C)C[C@H](NC(=O)CC[C@H](N)C(=O)O)C(=O)NCc1nn[nH]n1`, the inhibition in series [2] came out at 58%. The Activity in [4] is 0%.
`CCCCOC(=O)CNC(=O)[C@H](CC(C)C)NC(=O)CC[C@H](N)C(=O)O`: the inhibition in series [2] worked out at 0%; in series [5], 26%. Moreover, the Activity in series [4] stood at 102%; in [6] it was 3%.
Molecule `CC(C)C[C@H](NC(=O)CC[C@H](N)C(=O)O)C(=O)NCC(=O)NO` (HELM PEPTIDE1{[gGlu].L.G.[ON[*:1]]}$$$$V2.0) came in with an IC50 in series [7] of 3.2 µM. The inhibition in [2] turned out to be 76%; in series [5] it was 98%. Also, the Ki in series [8] was 2.5 µM; in series [9], “Not Active”. Further, the values for the Activity in series [4] and in [6] were 44% and 1%, respectively.
Regarding `CC(C)C[C@H](NC(=O)CC[C@H](N)C(=O)O)C(=O)NCC(N)=O` (HELM PEPTIDE1{[gGlu].L.G.[am]}$$$$V2.0), in series [7], the IC50 is 105 µM. The inhibition in series [2] stood at 0%; in series [5], 89%. In [9], the inhibition constant Ki entry is given as “Not Active”. Further, the Activity in series [4] came out at 93%; in series [6], 22%.
In series [10], `CC(C)C[C@H](NC(=O)CC[C@H](N)C(=O)O)C(=O)NCC(=O)O` (HELM PEPTIDE1{[gGlu].L.G}$$$$V2.0) had a half-life of 1 h. Also, the IC50 result in [11] and in [12] was “Not Active” in each case. The inhibition in series [2] and in series [5] was 0% throughout. Also, the Ki entry in series [13] and in series [14] was “Not Active” each time. Besides, the figures for the Activity in [4] and in [6] were 104% and 125%, respectively.

B1: Glutathionylspermidine synthase (Crithidia fasciculata), P90518 (protein)
chain: T1 sequence (P90518 whole entry)
As for B1, the Km in [15] worked out at 34 µM; in [16], 245 µM; in [17] it was 34 µM. Moreover, the Vmax in series [16] amounted to 15%.
